Measurements as given in patent US8017637B2, “Inhibitors of cdc phosphatases” (Ipsen Pharma S.A.S., priority 2004, dated 2011).

What was measured:
[1] = test system: Mia-Paca2 lines (human pancreatic cancer cells); experiment: Anti-proliferative activity, WST1 colorimetric test, Mia-Paca2 cells; assay type: cell-based; settings: MIA PaCa-2, 96 hours treatment, up to 10 μM, read-out: IC50 on the cell proliferation of the Mia-Paca2 lines
Description: (§1) ii) Characterization of Anti-Proliferative Activity:
(§2) By way of example, the effect of a treatment by the compounds of the examples described previously on two lines of human Mia-Paca2 and DU145 cells will be studied. The cell lines DU145 (human prostate cancer cells) and Mia-PaCa2 (human pancreatic cancer cells) were acquired from the American Tissue Culture Collection (Rockville, Md., USA). The cells placed in 80 μl of Dulbecco's Modified Eagle medium (Gibco-Brl, Cergy-Pontoise, France) completed with 10% foetal calf serum inactivated by heating (Gibco-Brl, Cergy-Pontoise, France), 50,000 units/l of penicillin and 50 mg/l streptomycin (Gibco-Brl, Cergy-Pontoise, France), and 2 mM of glutamine (Gibco-Brl, Cergy-Pontoise, France) were seeded on a 96-well plate on day 0. The cells were treated on day 1 for 96 hours at increasing concentrations of each of the compounds to be tested up to 10 μM. At the end of the of this period, quantification of the cell proliferation is evaluated by a colorimetric test based on the cleavage of the tetrazolium salt WST1 by the mitochondrial dehydrogenases in the viable cells leading to the formation of formazan (Boehringer Mannheim, Meylan, France). These tests are carried out in duplicate with 8 determinations per concentration tested. For each compound to be tested, the values included in the linear part of the sigmoid were retained for linear regression analysis and used in order to estimate the inhibitory concentration IC50. The products are solubilized in dimethylsulphoxide (DMSO) at to 10^−2M and finally used in culture with 0.1% DMSO.

[2] = test system: DU-145 lines (human prostate cancer cells); experiment: Anti-proliferative activity, WST1 colorimetric test, DU145 cells; assay type: cell-based; settings: 96 hours treatment, up to 10 μM, read-out: IC50 on the cell proliferation of the DU-145 lines
Description: as §1, §2

[3] = target: T1, purified recombinant enzyme Cdc25-C (MBP-Cdc25C) (Homo sapiens, UniProt P30307); experiment: Measurement of the phosphatase activity of the purified recombinant enzyme Cdc25C (OMFP dephosphorylation, fluorescence); assay type: biochemical; settings: OMFP 500 μM, 4 hours at 30° C.
T1 construct: made in house
T1 sequence (P30307 1-473): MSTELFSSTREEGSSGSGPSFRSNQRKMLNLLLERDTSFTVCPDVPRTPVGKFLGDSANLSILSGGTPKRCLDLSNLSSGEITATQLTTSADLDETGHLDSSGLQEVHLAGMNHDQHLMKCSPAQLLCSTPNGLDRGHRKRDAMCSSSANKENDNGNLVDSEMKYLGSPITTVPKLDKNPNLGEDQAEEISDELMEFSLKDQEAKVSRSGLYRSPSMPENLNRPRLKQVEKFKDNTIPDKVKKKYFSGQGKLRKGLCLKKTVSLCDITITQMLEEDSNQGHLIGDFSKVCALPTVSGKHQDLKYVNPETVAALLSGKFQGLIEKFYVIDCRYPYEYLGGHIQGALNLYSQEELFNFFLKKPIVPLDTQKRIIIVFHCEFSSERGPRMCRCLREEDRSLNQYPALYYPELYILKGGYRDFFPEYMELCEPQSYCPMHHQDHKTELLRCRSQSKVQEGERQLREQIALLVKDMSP
Description: i) Measurement of the Phosphatase Activity of the Purified Recombinant Enzyme Cdc25C
The phosphatase activity of the protein MBP-Cdc25C is evaluated by the dephosphorylation of 3-O-methylfluorescein-phosphate (OMFP) to 3-O-methylfluorescein (OMF) with a determination of the fluorescence at 475 nm of the reaction product. This test makes it possible to identify inhibitors of the recombinant enzyme cdc25. The preparation of the fusion protein MBP-Cdc25C is described in the Patent Application PCT WO 01/44467.
The reaction is carried out in 384-well plate format at a final volume of 50 μl. The protein MBP-Cdc25C (prepared as described above) is preserved in the following elution buffer: 20 mM Tris-HCl pH 7.4; 250 mM NaCl; 1 mM EDTA; 1 mM of dithiothreitol (DTT); 10 mM maltose. It is diluted to a concentration of 60 μM in the following reaction buffer: 50 mM Tris-HCl pH 8.2; 50 mM NaCl; 1 mM DTT; 20% glycerol. Measurement of the background noise is carried out with the buffer without the addition of the enzyme. The products are tested at decreasing concentrations starting from 40 μM. The reaction is initiated by the addition of an OMFP solution at 500 μM final (prepared extemporaneously from a 12.5 mM stock solution in 100% DMSO (Sigma #M2629)). After 4 hours at 30° C. in a single-use 384-well plate, the fluorescence measured at OD 475 nm is read using a Victor^2 plate reader (EGG-Wallac). The determination of the concentration inhibiting the enzyme reaction by 50% is calculated from three independent experiments. Only the values contained in the linear part of the sigmoid are retained for linear regression analysis.

SMILES | IC50 [1] | IC50 [2] | IC50 [3] | melting point
CN(CCCNC1=CC(=O)c2sc(C(=O)NCCCN3CCCC3=O)nc2C1=O)CCCNC1=CC(=O)c2sc(C(=O)NCCCN3CCCC3=O)nc2C1=O [Example 7, 5.5′-[(methylimino)bis(propane-3,1-diylimino)]bis{4,7-dioxo-N-[3-(2-oxopyrrolidin-1-yl)propyl]-4,7-dihydro-1,3-benzothiazole-2-carboxamide}] | ≤ 10 µM | ≤ 10 µM | ≤ 1 µM | 185 to 186 °C
CN(CCCNC1=CC(=O)c2nc(Cc3c(F)cccc3Cl)oc2C1=O)CCCNC1=CC(=O)c2nc(Cc3c(F)cccc3Cl)oc2C1=O [Example 10, 6.6′-[(methylimino)bis(propane-3,1-diylimino)]bis[2-(2-chloro-6-fluorobenzyl)-1,3-benzoxazole-4,7-dione]] | ≤ 10 µM | ≤ 10 µM | ≤ 1 µM | 165 to 167 °C
CN(CCCNC1=CC(=O)c2nc(-c3ccc(F)cc3)oc2C1=O)CCCNC1=CC(=O)c2nc(-c3ccc(F)cc3)oc2C1=O [Example 15, 6.6′-[(methylimino)bis(propane-3,1-diylimino)]-bis[2-(4-fluorophenyl)-1,3-benzoxazole-4,7-dione]] | ≤ 10 µM | ≤ 10 µM | ≤ 1 µM | 204 to 205 °C
CN(CCCNC1=CC(=O)c2scnc2C1=O)CCCNC1=CC(=O)c2scnc2C1=O [Example 25, 5.5′-[(methylimino)bis(propane-3,1-diylimino)]bis(1,3-benzothiazole-4,7-dione)] | ≤ 10 µM | ≤ 10 µM | ≤ 1 µM | 223 to 224 °C
CN(CCCNC1=CC(=O)c2nc(C(=O)N3CCCC3)sc2C1=O)CCCNC1=CC(=O)c2nc(C(=O)N3CCCC3)sc2C1=O [Example 31, 6.6′-[(methylimino)bis(propane-3,1-diylimino)]bis[2-(pyrrolidin-1-ylcarbonyl)-1,3-benzothiazole-4,7-dione]] | ≤ 10 µM | ≤ 10 µM | ≤ 1 µM | 237 to 238 °C
CN(CCCNC1=CC(=O)c2sc(C(=O)Nc3ccc(F)cc3)nc2C1=O)CCCNC1=CC(=O)c2sc(C(=O)Nc3ccc(F)cc3)nc2C1=O [Example 32, 5.5′-[(methylimino)bis(propane-3,1-diylimino)]bis[N-(4-fluorophenyl)-4,7-dioxo-4,7-dihydro-1,3-benzothiazole-2-carboxamide]] | ≤ 10 µM | ≤ 10 µM | ≤ 1 µM | 262 to 263 °C
COc1ccc(CNC(=O)c2nc3c(s2)C(=O)C=C(NCCCN(C)CCCNC2=CC(=O)c4sc(C(=O)NCc5ccc(OC)cc5)nc4C2=O)C3=O)cc1 [Example 33, 5.5′-[(methylimino)bis(propane-3,1-diylimino)]bis[N-(4-methoxybenzyl)-4,7-dioxo-4,7-dihydro-1,3-benzothiazole-2-carboxamide]] | ≤ 10 µM | ≤ 10 µM | ≤ 1 µM | 174 to 175 °C

Continued, values first:

IC50 [1] | IC50 [2] | IC50 [3] | melting point | SMILES
≤ 10 µM | ≤ 10 µM | ≤ 1 µM | 209 to 210 °C | CN(CCCNC1=CC(=O)c2nc(-c3cc(F)ccc3F)oc2C1=O)CCCNC1=CC(=O)c2nc(-c3cc(F)ccc3F)oc2C1=O [Example 8, 6.6′-[(methylimino)bis(propane-3,1-diylimino)]-bis[2-(2,5-difluorophenyl)-1,3-benzoxazole-4,7-dione]]
≤ 10 µM | ≤ 10 µM | ≤ 5 µM | 199 to 200 °C | CN(CCCNC1=CC(=O)c2nc(-c3cccc(Br)c3)oc2C1=O)CCCNC1=CC(=O)c2nc(-c3cccc(Br)c3)oc2C1=O [Example 11, 6.6′-[(methylimino)bis(propane-3,1-diylimino)]-bis[2-(3-bromophenyl)-1,3-benzoxazole-4,7-dione]]
≤ 10 µM | ≤ 10 µM | ≤ 1 µM | 196 to 197 °C | CN(CCCNC1=CC(=O)c2nc(-c3cccc(Cl)c3)oc2C1=O)CCCNC1=CC(=O)c2nc(-c3cccc(Cl)c3)oc2C1=O [Example 14, 6.6′-[(methylimino)bis(propane-3,1-diylimino)]-bis[2-(3-chlorophenyl)-1,3-benzoxazole-4,7-dione]]
≤ 10 µM | ≤ 10 µM | ≤ 1 µM | 131 to 132 °C | Cc1nc2c(s1)C(=O)C=C(NCCCN(CCCNC1=CC(=O)c3sc(C)nc3C1=O)CCCNC1=CC(=O)c3sc(C)nc3C1=O)C2=O [Example 18]
≤ 10 µM | ≤ 10 µM | ≤ 1 µM | > 240 °C | Cc1nc2c(s1)C(=O)C=C(NCC1CCC(CNC3=CC(=O)c4sc(C)nc4C3=O)CC1)C2=O (stereo not shown) [Example 20, 5.5′-[cyclohexane-1,4-diylbis(methyleneimino)]bis(2-methyl-1,3-benzothiazole-4,7-dione)]
≤ 10 µM | ≤ 10 µM | ≤ 1 µM | 207 to 208 °C | CN(CCCNC1=CC(=O)c2sc(C(=O)N3CCOCC3)nc2C1=O)CCCNC1=CC(=O)c2sc(C(=O)N3CCOCC3)nc2C1=O [Example 26, 5.5′-[(methylimino)bis(propane-3,1-diylimino)]bis[2-(morpholin-4-ylcarbonyl)-1,3-benzothiazole-4,7-dione]]
≤ 10 µM | ≤ 10 µM | ≤ 1 µM | 145 to 146 °C | CN(CCCNC1=CC(=O)c2sc(C(=O)NC3CCCCC3)nc2C1=O)CCCNC1=CC(=O)c2sc(C(=O)NC3CCCCC3)nc2C1=O [Example 35, 5.5′-[(methylimino)bis(propane-3,1-diylimino)]bis(N-cyclohexyl-4,7-dioxo-4,7-dihydro-1,3-benzothiazole-2-carboxamide)]
≤ 10 µM | ≤ 10 µM | ≤ 1 µM | 202 to 203 °C | COc1ccc(C(=O)N2CCN(C(=O)c3nc4c(s3)C(=O)C=C(NCCCN(C)CCCNC3=CC(=O)c5sc(C(=O)N6CCN(C(=O)c7ccc(OC)cc7)CC6)nc5C3=O)C4=O)CC2)cc1 [Example 36, 5.5′-[(methylimino)bis(propane-3,1-diylimino)]bis(2-([4-(4-methoxybenzoyl)piperazin-1-yl]carbonyl)-1,3-benzothiazole-4,7-dione)]
≤ 10 µM | ≤ 10 µM | ≤ 1 µM | 173 to 174 °C | CN(CCCNC1=CC(=O)c2sc(C(=O)N3CCN(C(=O)c4ccco4)CC3)nc2C1=O)CCCNC1=CC(=O)c2sc(C(=O)N3CCN(C(=O)c4ccco4)CC3)nc2C1=O [Example 37, 5.5′-[(methylimino)bis(propane-3,1-diylimino)]bis(2-{[4-(2-furoyl)piperazin-1-yl]carbonyl}-1,3-benzothiazole-4,7-dione)]
